Earlier results, collected in patent publication US20250215497A1, “IL-8, IL-6, IL-1 Beta and TET2 and DNMT3A in Atherosclerosis” (The Brigham and Women’s Hospital, Inc., priority 2017, published 2025).

Assays:
[1] = system: IL-6; conditions: patients with rheumatoid arthritis, low-dose methotrexate
[2] = system: IL-1β; conditions: patients with rheumatoid arthritis, low-dose methotrexate (for example from 15 to 20 mg/week)

CN(Cc1cnc2nc(N)nc(N)c2n1)c1ccc(C(=O)N[C@@H](CCC(=O)O)C(=O)O)cc1 [methotrexate]
effect on IL-6 levels [1]: improve IL-6 levels | effect on IL-1β levels [2]: improve IL-1β levels
